Among the test systems are M14 melanoma; OVCAR-4 ovarian; HL-60(TB) leukemia; A498 renal; MDA-MB-435; HCT-15 colon; IGROV1 ovarian; SNB-19 CNS; SR leukemia; T-47D breast; HCC-2998 colon; HT29 colon; MCF7 breast; NCI-H460 lung.
Holding throughout (assay): NCI-60 cell line screen, 48 h

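96-well plates; 48 h exposure; 5 concentrations. Endpoints by linear interpolation between flanking doses. Not reached: highest tested concentration assigned. The concentration for full growth arrest is given as TGI.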

Drawing on PubChem BioAssay (NCI), this text covers TGI for nine molecules.

For the molecule `CC(C)=CCC[C@@H](C)C1=C(O)C(Nc2ccccc2Cl)=C(C)C(=O)C1=O`, the TGI is greater than 59.9 µM with M14 melanoma; greater than 75 µM with OVCAR-4 ovarian; 4.16 µM in the experiment with HL-60(TB) leukemia; greater than 56.9 µM in the experiment with A498 renal; greater than 75 µM in the experiment on MDA-MB-435; greater than 75 µM in the experiment on HCT-15 colon. Besides, the TGI was 46.5 µM in the experiment on IGROV1 ovarian; greater than 75 µM with SNB-19 CNS; 72.1 µM in the experiment on SR leukemia; 62.7 µM in the experiment on T-47D breast; greater than 56.6 µM in the experiment with HCC-2998 colon; 26.3 µM with HT29 colon. Besides, the TGI in the experiment with MCF7 breast and in the experiment on NCI-H460 lung was greater than 75 µM in each case.
As for `CCOC(=O)NC(Nc1ccc(F)cc1)(C(=O)OCC)C(F)(F)F` (stereo unspecified), the TGI with M14 melanoma, in the experiment with OVCAR-4 ovarian, with HL-60(TB) leukemia, in the experiment on A498 renal, with MDA-MB-435 and with HCT-15 colon was greater than 100 µM in each case. Further, the TGI with IGROV1 ovarian, with SNB-19 CNS, in the experiment with SR leukemia, with T-47D breast, in the experiment on HCC-2998 colon and in the experiment with HT29 colon was greater than 100 µM each time. The TGI in the experiment with MCF7 breast and with NCI-H460 lung was greater than 100 µM in each case.
For the molecule `CC1=CC[C@@]2(C)CC[C@](O)(C(C)C)C2C(OC(=O)c2ccccc2)C1` (stereo partly specified), the TGI in the experiment with M14 melanoma was found to be 37.8 µM; with OVCAR-4 ovarian it was 62.2 µM; in the experiment with HL-60(TB) leukemia, 82.2 µM; in the experiment with A498 renal it was 50.8 µM; with MDA-MB-435, 93.2 µM; with HCT-15 colon, 34.2 µM. In addition, the TGI was found to be 30.6 µM in the experiment on IGROV1 ovarian; 40.5 µM in the experiment on SNB-19 CNS; 97 µM with SR leukemia; 42.6 µM with T-47D breast; 25 µM in the experiment on HCC-2998 colon; 32.7 µM with HT29 colon. Further, the TGI with MCF7 breast turned out to be 34.4 µM; in the experiment with NCI-H460 lung, 40.6 µM.
For `CC(C)=CCCC(C)CCOS(=O)C(F)(F)F` (stereo unspecified), the TGI stood at 6.59 µM with M14 melanoma; 20.5 µM with OVCAR-4 ovarian; 9.14 µM in the experiment with HL-60(TB) leukemia; 63.7 µM in the experiment on A498 renal; 37.1 µM in the experiment with MDA-MB-435; 11.5 µM with HCT-15 colon. Also, the TGI with IGROV1 ovarian was 74.6 µM; in the experiment with SNB-19 CNS, 78 µM; in the experiment on SR leukemia, 10.3 µM; with T-47D breast, greater than 100 µM; with HCC-2998 colon it was 27.5 µM; with HT29 colon, 28.5 µM. Also, the figures for the TGI with MCF7 breast and in the experiment on NCI-H460 lung were greater than 100 µM and 46.3 µM, respectively.
Take `Cc1ccc2nc(C(C)C)c(=O)[nH]c2c1`: the TGI in the experiment on M14 melanoma, in the experiment on OVCAR-4 ovarian, in the experiment with HL-60(TB) leukemia, in the experiment with A498 renal, in the experiment on MDA-MB-435 and with HCT-15 colon was greater than 100 µM throughout. Moreover, the TGI in the experiment with IGROV1 ovarian, in the experiment with SNB-19 CNS, in the experiment on SR leukemia, with T-47D breast, in the experiment on HCC-2998 colon and in the experiment with HT29 colon was greater than 100 µM in each case. Also, the TGI in the experiment with MCF7 breast and in the experiment with NCI-H460 lung was greater than 100 µM in each case.
As for `O=C1/C(=C/c2ccccc2[N+](=O)[O-])N=C(c2ccccc2)N1c1nc2ccccc2s1`, the TGI in the experiment on M14 melanoma was greater than 100 µM; in the experiment on OVCAR-4 ovarian, 51 µM; in the experiment on HL-60(TB) leukemia, 57.1 µM; in the experiment with A498 renal, 72.1 µM; in the experiment on MDA-MB-435 it was 54.1 µM; in the experiment on HCT-15 colon, 56.8 µM. Besides, the TGI in the experiment on IGROV1 ovarian was 33.7 µM; in the experiment on SNB-19 CNS, greater than 100 µM; with SR leukemia, 34.3 µM; in the experiment with T-47D breast, 76.6 µM; in the experiment on HCC-2998 colon it was 43.1 µM; with HT29 colon, greater than 100 µM. Moreover, the TGI with MCF7 breast is 90.4 µM; in the experiment with NCI-H460 lung, greater than 100 µM.
`O=C(CSCC(=O)N/N=C\c1cccc([N+](=O)[O-])c1)N/N=C\c1cccc([N+](=O)[O-])c1`: the TGI is greater than 100 µM with M14 melanoma; greater than 100 µM with OVCAR-4 ovarian; greater than 100 µM in the experiment with HL-60(TB) leukemia; greater than 100 µM in the experiment with A498 renal; greater than 100 µM in the experiment on MDA-MB-435; 67.8 µM with HCT-15 colon. Further, the TGI with IGROV1 ovarian is 68.7 µM; in the experiment with SNB-19 CNS it was greater than 100 µM; in the experiment with SR leukemia, greater than 100 µM; in the experiment with T-47D breast it was greater than 100 µM; in the experiment with HCC-2998 colon, greater than 100 µM; with HT29 colon, greater than 100 µM. Further, the TGI in the experiment with MCF7 breast and in the experiment with NCI-H460 lung was greater than 100 µM throughout.
Turning to `COc1ccccc1/C=C/C1=NN(c2cccc(S(=O)(=O)O)c2)C2(C1)C(Cl)C(=O)N2c1nc2ccccc2s1` (stereo unspecified), the TGI in the experiment on M14 melanoma is greater than 100 µM; in the experiment on OVCAR-4 ovarian it was greater than 100 µM; in the experiment with HL-60(TB) leukemia, 45.5 µM; with A498 renal, greater than 100 µM; with MDA-MB-435, greater than 100 µM; in the experiment on HCT-15 colon, greater than 100 µM. Further, the TGI is greater than 100 µM in the experiment with IGROV1 ovarian; greater than 100 µM in the experiment on SNB-19 CNS; 55.2 µM in the experiment with SR leukemia; 44 µM in the experiment with T-47D breast; greater than 100 µM in the experiment with HCC-2998 colon; greater than 100 µM in the experiment on HT29 colon. In addition, the TGI with MCF7 breast and with NCI-H460 lung was greater than 100 µM throughout.
For the molecule `O=C(NNC(=S)NC1CCCCC1)C12CC3CC(CC(C3)C1)C2`, the TGI with M14 melanoma, in the experiment with OVCAR-4 ovarian, with HL-60(TB) leukemia, in the experiment with A498 renal, in the experiment with MDA-MB-435 and in the experiment with HCT-15 colon was greater than 100 µM in each case. Further, the TGI in the experiment on IGROV1 ovarian, in the experiment on SNB-19 CNS, with SR leukemia, in the experiment on T-47D breast, with HCC-2998 colon and in the experiment on HT29 colon was greater than 100 µM each time. The TGI in the experiment with MCF7 breast and with NCI-H460 lung was greater than 100 µM each time.
